# PubChem BioAssay (NCI)
#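 How tested: cells in 96-well plates exposed to compound for 48 hours at five concentrations. At the TGI there is no net growth.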
# Columns and labels:
# Assay in all cases: NCI-60 cell line screen, 48 h
# [1] = tested on: SK-MEL-5 melanoma
# [2] = tested on: M14 melanoma
# [3] = tested on: UACC-62 melanoma
# [4] = tested on: SN12C renal
# [5] = tested on: HOP-62 NSCLC
# [6] = tested on: OVCAR-8 ovarian
# [7] = tested on: KM12 colon
# [8] = tested on: PC-3 prostate
# [9] = tested on: HCT-116 colon
# [10] = tested on: LOX IMVI melanoma
# [11] = tested on: CAKI-1 renal
# [12] = tested on: CCRF-CEM leukemia
# [13] = tested on: SNB-19 CNS
# [14] = tested on: IGROV1 ovarian
# [15] = tested on: UO-31 renal
# [16] = tested on: NCI-H460 lung
# [17] = tested on: SK-OV-3 ovarian
# [18] = tested on: NCI-H23 lung
# [19] = tested on: SF-268 CNS
# [20] = tested on: COLO 205 colon
# [21] = tested on: BT-549 breast
# [22] = tested on: UACC-257 melanoma
# [23] = tested on: MDA-MB-435
# [24] = tested on: K-562 leukemia
# [25] = tested on: SF-295 CNS
# [26] = tested on: SR leukemia
# [27] = tested on: OVCAR-5 ovarian
# [28] = tested on: MDA-MB-231 breast
# [29] = tested on: HOP-92 NSCLC
# [30] = tested on: MOLT-4 leukemia
# [31] = tested on: SK-MEL-28 melanoma
# [32] = tested on: HL-60(TB) leukemia
# [33] = tested on: NCI/ADR-RES ovarian
# [34] = tested on: DU-145 prostate
# [35] = tested on: SK-MEL-2 melanoma
# [36] = tested on: RPMI-8226 leukemia
# [37] = tested on: U251 CNS
# [38] = tested on: SW-620 colon
# [39] = tested on: SNB-75 CNS
# [40] = tested on: OVCAR-4 ovarian
# [41] = tested on: ACHN renal
# [42] = tested on: MCF7 breast
# [43] = tested on: HS 578T breast
# [44] = tested on: HT29 colon
# [45] = tested on: SF-539 CNS
# [46] = tested on: 786-0 renal
# [47] = tested on: A549 NSCLC
# [48] = tested on: OVCAR-3 ovarian
# [49] = tested on: HCT-15 colon
smiles,measurement,setting,value
COc1ccc(-c2nc3ncccn3c2-c2ccc(S(C)(=O)=O)cc2)cc1,TGI,[1],> 100 µM
same,TGI,[2],> 100 µM
same,TGI,[3],> 100 µM
same,TGI,[4],> 100 µM
same,TGI,[5],> 100 µM
same,TGI,[6],> 100 µM
same,TGI,[7],> 100 µM
same,TGI,[8],> 100 µM
same,TGI,[9],> 100 µM
same,TGI,[10],> 100 µM
same,TGI,[11],68.7 µM
same,TGI,[12],> 100 µM
same,TGI,[13],> 100 µM
same,TGI,[14],> 100 µM
same,TGI,[15],> 100 µM
same,TGI,[16],> 100 µM
same,TGI,[17],> 100 µM
same,TGI,[18],> 100 µM
same,TGI,[19],> 100 µM
same,TGI,[20],> 100 µM
same,TGI,[21],> 100 µM
same,TGI,[22],> 100 µM
same,TGI,[23],> 100 µM
same,TGI,[24],> 100 µM
same,TGI,[25],> 100 µM
same,TGI,[26],> 100 µM
same,TGI,[27],> 100 µM
same,TGI,[28],> 100 µM
same,TGI,[29],> 100 µM
same,TGI,[30],> 100 µM
same,TGI,[31],> 100 µM
same,TGI,[32],> 100 µM
same,TGI,[33],> 100 µM
same,TGI,[34],> 100 µM
same,TGI,[35],> 100 µM
same,TGI,[36],> 100 µM
same,TGI,[37],> 100 µM
same,TGI,[38],> 100 µM
same,TGI,[39],> 100 µM
same,TGI,[40],> 100 µM
same,TGI,[41],> 100 µM
same,TGI,[42],81.8 µM
same,TGI,[43],> 100 µM
same,TGI,[44],> 100 µM
same,TGI,[45],> 100 µM
same,TGI,[46],> 100 µM
same,TGI,[47],> 100 µM
same,TGI,[48],> 100 µM
same,TGI,[49],> 100 µM
